These results are taken from ChEMBL document CHEMBL5107958, “Phosphoramidate Prodrugs Continue to Deliver, The Journey of Remdesivir (GS-5734) from RSV to SARS-CoV-2” (ACS Med Chem Lett, 2022).

The subject of test [1] is SARS-CoV-2. Put plainly: Antiviral activity against SARS-CoV-2 infected in HAEC cells assessed as reduction in viral replication incubated for 1.5 hrs followed by virus removal upto 24 hrs and subsequent replacement of medium containing compound by RT-qPCR analysis. Particulars: Severe acute respiratory syndrome coronavirus 2, HAEC. Format: functional, organism-based.
The subject of test [2] is SARS-CoV-2. Put plainly: Potency index, ratio of EC50 of GS-441524 to EC50 of test compound for antiviral activity against SARS-CoV-2 infected in HAEC cells assessed as reduction in viral replication incubated for 1.5 hrs followed by virus removal upto 24 hrs and subsequent replacement of medium containing compound by RT-qPCR analysis. Format: functional, Severe acute respiratory syndrome coronavirus 2. Particulars: time <= 25.5 hrs.

With `CCC(CC)OC(=O)[C@H](C)N[P@](=O)(OC[C@H]1O[C@@](C#N)(c2ccc3c(N)ncnn23)[C@H](O)[C@@H]1O)Oc1ccccc1`, the EC50 in test [1] worked out at 48 nM. The Ratio in test [2] is reported as 11.
Take `N#C[C@@]1(c2ccc3c(N)ncnn23)O[C@H](CO)[C@@H](O)[C@H]1O` [GS-441524]: the EC50 in test [1] amounted to 510 nM.
